Results on 16 molecules are retold here after patent publication US5872104A, “Combinations and methods for reducing antimicrobial resistance” (Oridigm Corporation, priority 1994, dated 1999).

Data set [1] concerns N- and O-methylation of mRNA. The following applies: 100 μM; cited from earlier work.
Another data set deals with polyamine biosynthesis. As to conditions: cited from earlier work.
Data set [2] concerns SAM-dependent methylations. As to conditions: cited from earlier work.
Data set [3] concerns S. aureus 27660 (erythromycin resistant). It is filed as cell-based. As to conditions: for enhanced killing with erythromycin: in combination with erythromycin.
Another data set has as its system methyl transfer from SAM. The following applies: cited from earlier work.
The test system of another data set is SAM-synthetase. The following applies: in vivo; cited from earlier work.
The subject of the next data set is glutathione. As to conditions: ip.; 4.5 mmol/kg buthionine sulfoximine and […] diethyl maleate; cited from earlier work.
The subject of data set [4] is adenosine deaminase. The following applies: cited from earlier work.
The subject of a further data set is lysosomal ADA. The following applies: 0.02 mM; cited from earlier work.
In another data set the test system is neoplastic cells. As to conditions: cited from earlier work.
The conditions of data set [5]: 1 mg/kg/day for 5 days; cited from earlier work.
Another data set concerns rat leukemia (BNML). As to conditions: nitrous oxide plus cycloleucine; cited from earlier work.
In data set [6] the test system is internal m^6 A of late SV40 mRNA. The following applies: 0.5 mg/ml; cited from earlier work.
The test system of the next data set is SAM synthetase. The following applies: cited from earlier work.
The subject of data set [7] is tumor-derived methionine adenosyltransferases. The following applies: cited from earlier work.
The test system of data set [8] is L1210 cells. The following applies: absence of polyamine depletion; cited from earlier work.
The subject of data set [9] is S. aureus 6538 (erythromycin susceptible). The data set is described as follows: Erythromycin disk susceptibility with inhibitor pre-mixed in agar. The class given is cell-based. As to conditions: inhibitor pre-mixed with BHIA or TSA, with erythromycin (FIG. 2).
Data set [10] has as its system 28S and 18S rRNA formation. As to conditions: cited from earlier work.
The next data set relates to Brucella canis. As to conditions: 2×10 mg/kg; cited from earlier work.
Data set [11] has as its system adenosine deaminase. The following applies: cited from earlier work. This is another data set of the same source.
A further data set deals with viruses. As to conditions: cited from earlier work.
The next data set concerns murine L929 SAHH. The following applies: cited from earlier work.
Data set [12] deals with tRNA methylases isolated from E. coli. As to conditions: cited from earlier work.
In the next data set the test system is SAH hydrolase. The following applies: cited from earlier work.
For data set [13] the following is noted: iv., mice; cited from earlier work.
Data set [14] has as its system mature rRNA in Novikoff hepatoma cells. The following applies: cited from earlier work.
The subject of the next data set is rRNA processing. The following applies: cited from earlier work.
For another data set, the system named is hamster liver SAHH. The following applies: cited from earlier work.
The next data set deals with human liver SAHH. The following applies: cited from earlier work.
In a further data set the test system is SAHH hydrolase. As to conditions: cited from earlier work.
The test system of data set [15] is 28S rRNA, 18S rRNA and tRNA. As to conditions: NPA 10 μM; c^3 -NPA 10 μM; c^3 -Ari 100 μM; cited from earlier work.
A further data set has as its system cytotoxicity. The following applies: cited from earlier work.
The next data set relates to SAM pools in L1210 cells. The following applies: cited from earlier work.
In data set [16] the test system is L1210 cells. Briefly: Growth inhibition in L1210 cell culture. It is filed as cell-based.
For the next data set, the system named is cell culture. The following applies: cited from earlier work.
For data set [17] the following is noted: prolonged exposure to clinical concentrations; cited from earlier work.
In a further data set the test system is Salmonella typhimurium. As to conditions: elevated pressures; cited from earlier work.
The next data set relates to Streptococcus faecalis. The following applies: elevated pressures; cited from earlier work.
The subject of a further data set is E. coli. The following applies: elevated pressures; cited from earlier work.
A further data set relates to methionine synthetase. The following applies: cited from earlier work.
The subject of the next data set is S. aureus. As to conditions: elevated pressures; cited from earlier work.
Data set [18] deals with rat SAM synthetase M-2 isozyme. The following applies: cited from earlier work.
For data set [19], the system named is rat SAM synthetase M-1 isozyme. The following applies: cited from earlier work.
The test system of a further data set is vaccinia virus. The following applies: cited from earlier work.
In another data set the test system is malarial growth. The following applies: read-out: ED50 (the source's name); cited from earlier work.
For data set [20], the system named is vesicular stomatitis virus. The following applies: primary rabbit kidney cells; cited from earlier work.
The subject of a further data set is human retrovirus. The following applies: cited from earlier work.

Molecules are shown by their SMILES. Read-outs that look alike come from different tables or passages of the source.

For `Nc1nccc2c1ncn2[C@@H]1O[C@H](CO)[C@@H](O)[C@H]1O` [3-deazaadenosine], the “inhibition of N- and O-methylation of mRNA” value in data set [1] is given as 31-83%.
Regarding `CSC[C@H]1O[C@@H](n2cnc3c(N)ncnc32)[C@H](O)[C@@H]1O` [Methylthioadenosine, 5'-Deoxy-5'-(methylthio)adenosine], the “inhibition of spermine and spermidine synthesis” value in the data set on polyamine biosynthesis is “inhibitor of spermine and spermidine synthesis”. Besides, the “inhibition of SAM-dependent methylations” value in [2] is listed as “inhibitor of several SAM-dependent methylations”. The “enhanced killing with erythromycin” value in [3] is reported as “enhanced the killing”. In the data set with methyl transfer from SAM, the inhibition entry was “effective inhibitors”.
Consider `CCCCS(=N)(=O)CCC(N)C(=O)O` (centres unmarked) [buthionine sulfoximine, CH3 (CH2)2 S (O)(=NH)CH2 CH2 CH(NH2)COOH], for which the “SAM-synthetase activity, % of untreated animals” value in the data set with SAM-synthetase is “about 40%”. Besides, the depletion of glutathione entry with glutathione was “depleted liver and aortic glutathione”.
For `OC[C@H]1O[C@@H](n2cnc3c2NC=NC[C@H]3O)C[C@@H]1O` [2'-deoxyconformycin (pentostatin)], in the data set on adenosine deaminase [4], the ADA inhibition entry is on record as “potent inhibitors of ADA”. Further, the “inhibition of lysosomal ADA” value in the data set with lysosomal ADA is over 97%. The “safe and effective low weekly dose (protracted ADA inhibition in neoplastic cells)” value in the data set with neoplastic cells is 0.13 mg/kg. In [5], the tolerability in patients entry was “minimal distress”.
For the molecule `NC1(C(=O)O)CCCC1` [cycloleucine, 1-aminocyclopentane-1-carboxylic acid], the growth inhibiting effects result in the data set with rat leukemia (BNML) is reported as “synergistic growth inhibiting effects”. In addition, the “decrease in internal m^6 A” value in data set [6] is over 30%. Further, the SAM synthetase inhibition entry with SAM synthetase is on record as “inhibitor of SAM synthetase”. Besides, the inhibition entry in [7] is given as “effective inhibitors”. Also, the IC50 in the data set on L1210 cells [8] was 5000 µM. The “improved killing, increase over control” value in data set [3] (0.1M in Brain Heart Infusion Agar (FIG. 3)) worked out at 240%. Also, the “increase in the size of the clear zone” value in [3] (inhibitor pre-mixed with BHIA or TSA, with erythromycin (FIG. 3)) was “increase in the size of the clear zone”; in data set [9], “increase in the size of the clear zone”.
With `Nc1ncn([C@@H]2O[C@H](CO)[C@@H](O)[C@H]2O)c(=O)n1` [5-Azacitidine], in data set [10], the “formation of 28S and 18S RNA” value was “severely inhibited”.
With `[H]/N=C(/N)N[C@H]1[C@H](O)[C@@H](O)[C@H](O[C@@H]2O[C@@H](C)[C@](O)(C=O)[C@H]2O[C@@H]2O[C@@H](CO)[C@H](O)[C@@H](O)[C@@H]2NC)[C@@H](N/C(N)=N\[H])[C@@H]1O` [streptomycin], in the data set with Brucella canis, the surviving bacteria entry is “only a minor reduction in the number of surviving bacteria”.
Take `CC(O)C1=C[C@@H](n2cnc3c(N)ncnc32)[C@H](O)[C@@H]1O` (some centres unmarked) [6'-C-methylneplanocin A]: the “resistance to adenosine deaminase” value in the data set on adenosine deaminase [11] is listed as “virtually resistant to adenosine deaminase”. The “antiviral potency and selectivity vs neplanocin A” value with viruses was “surpassing neplanocin A both in antiviral potency and selectivity”. In the data set on murine L929 SAHH, the SAHH inhibition entry is “good inhibitor of murine L929 SAHH”.
As a reminder, the LD50 is the dose expected to kill half of the subjects tested. `Nc1ncnc2c1ccn2[C@@H]1O[C@H](CO)[C@@H](O)[C@H]1O` [Tubercidin, 7-deazaadenosine]: the “inhibition of E. coli tRNA methylases” value in data set [12] is recorded as “inhibitory to tRNA methylases isolated from E. coli”. In addition, in the data set with SAH hydrolase, the SAH hydrolase inhibition result is recorded as “inhibits SAHH”. The LD50 in [13] is recorded as 45 mg/kg. Also, the “formation of mature rRNA” value in [14] was “inhibit the formation of mature 28S and 18”. For the same molecule, the rRNA processing result with rRNA processing was “inhibits rRNA processing in addition to methylation of tRNA and protein and nucleic acid synthesis”.
For the molecule `Nc1ncnc2c1ncn2[C@@H]1O[C@H](CO)[C@@H](O)[C@H]1Cl` [CLA, 2'-deoxy-2'-chloroadenosine], the inhibition entry in the data set with hamster liver SAHH and with human liver SAHH was “inhibitor” each time.
For the molecule `Nc1nccc2c1ncn2[C@@H]1C=C(CO)[C@@H](O)[C@H]1O` [3-Deazaneplanocin A, 3-deazaneplanocin A], in the data set on SAHH hydrolase, the “antiviral activity and cytotoxicity vs first generation” value is “retained antiviral activity and considerably lower cytotoxicity than their parent first generation inhibitors”. In [15], the “methylation of 28S rRNA, 18S rRNA and tRNA” value is “inhibit the methylation of 28S rRNA, 18S rRNA and tRNA”. For the same molecule, the “cytotoxicity relative to neplanocin A” value in the data set on cytotoxicity was “significantly less cytotoxic than neplanocin A”. The “enhanced killing with erythromycin” value in [3] was “enhanced the killing”.
In the case of `CO/C=C\[C@H](N)C(=O)O` (stereo in doubt) [L-cis-AMB, L-2-amino-4-methoxy-cis-but-3-enoic acid], in the data set on SAM pools in L1210 cells (1 mM, cultured L1210 cells), the “depletion of SAM” value is “rapid and near-total depletion of SAM by 4 hours”. Besides, the “SAM pools in intact cells” value in the data set with SAM pools in L1210 cells (intact cells) is reported as “rapidly depleting SAM pools in intact cells without affecting precursor incorporation into macromolecules”. In addition, the SAM synthetase inhibition result with SAM synthetase is recorded as “most potent methionine-analogue inhibitor of SAM synthetase at that time”. Also, the “IC50, fold lower than that of cycloleucine” value with L1210 cells [16] is “about 10 fold”. In addition, the IC50 in the data set with L1210 cells [8] is 400 µM.
As for `Nc1ncnc2c1ncn2[C@@H]1C[C@H](O)[C@@H](O)[C@H]1O` (relative stereo) [(±)-5-Noraristeromycin], the SAH hydrolase inhibition result with SAH hydrolase was “inhibitors of SAHH”. The times less cytotoxic in the data set on cell culture is listed as 10 to 20 times.
`[N-]=[N+]=O` [nitrous oxide]: the growth inhibiting effects entry with rat leukemia (BNML) is “synergistic growth inhibiting effects”. Moreover, the “adverse effects of prolonged exposure” value in [17] was “inhibits cellular proliferation and can lead to megaloblastic anemia, leukopenia, and thrombocytopenia”. Besides, the inhibition of bacteria entry in the data set with Salmonella typhimurium, in the data set on Streptococcus faecalis, in the data set with E. coli and in the data set with S. aureus was “inhibited” each time. Besides, the methionine synthetase entry in the data set on methionine synthetase is reported as “inhibiting methionine synthetase”.
For the molecule `Nc1ncnc2c1ncn2[C@@H]1O[C@H]([C@H](CSCC[C@H](N)C(=O)O)OP(=O)(O)OP(=O)(O)NP(=O)(O)O)[C@@H](O)[C@H]1O` [5'(R)-(C)-[(L-homocysteine-S-yl)methyl]adenosine 5'-(β,γ-imidotriphosphate)], the inhibition result in data set [18] and in [19] was “most effective inhibitor” throughout.
Broadly, the Ki is a dissociation constant, usually derived from enzyme kinetics or from competition with a known ligand. Take `Nc1ncnc2c1ncn2[C@@H]1C=C(CO)[C@@H](O)[C@H]1O` [NPA, neplanocin A]: at SAH hydrolase (De Clercq & Cools (1985)), the Ki is 0.002 µM. Also, the SAH hydrolase inhibition entry in the data set on SAH hydrolase is “potent inhibitor of SAH hydrolase”. Also, the “inhibition of plaque formation” value in the data set with vaccinia virus (0.5 μM) is 84%; in the data set on vaccinia virus (1 μM), 95%. Further, the “toxicity to the host cells” value in the data set on vaccinia virus (0.5 and 1 μM) was “little toxicity to the host cells”. In addition, in the data set on malarial growth, the IC50 is 3 µM. In data set [20], the “minimum inhibitor concentration (50% reduction of cytopathogenicity)” value is 0.018 µg/mL. Also, the effective inhibitory concentration in the data set with human retrovirus was about 0.2 µg/mL.
